Entries after “also recorded” stand apart in the source; their conditions may differ.
tested on: mitochondria or chloroplast of Chlamydomonas reinhardtii; experiment: Subcellular localization of Venus reporter by epifluorescence microscopy (manual targeting assignment); format: cell-based; conditions: 15 N-terminal residues of RCA1-cTP added, no C-terminal element; Figure 2
Source text: In a bid to keep peptidase recognition sites intact, C-terminal elements were designed to start 10 residues upstream of the cleavage site, even though this slightly truncates TP helices. Peptides carrying the 15-amino-acid cTP N-terminus (cTP-N) will be denoted ^cP. Similarly, peptides with C-terminal elements from RCA1-cTP (cTP-C) or CAG2-mTP (mTP-C) will be denoted P^c or P^m, respectively. Peptide variants are used to drive the subcellular localization of a Venus fluorescent reporter protein, which was assessed using fluorescence microscopy; in Figure 2, an executive overview of observed Venus localization is presented for all constructs. […] Here, we use automated image segmentation to validate our subcellular localization assessment (Supplemental Figure 2, Supplemental text). […] The reader will be asked to return to Figure 2 throughout, with Figures 3 and 4 providing selected micrographs as examples highlighting particular points of interest.
Chlamydomonas TP sequences were amplified from genomic DNA extracted from strain T222+ (CC-5101). Templates for codon-optimized HA-RAMP, RP, and R→K modified TP sequences were obtained by gene synthesis (Eurofins Genomics). Correct assembly was verified by sequencing (Eurofins Genomics). Linear transformation cassettes were generated through restriction digestion with EcoRV (New England Biolabs).
Constructs were transformed into wild-type strain T222+ (CC-5101) using a protocol described previously ([Onishi and Pringle, 2016]), except using 4 μl of DNA at 2 μg/μl.
Strains with suspected mitochondrial targeting were treated with 0.1 μM MitoTracker Red CMXRos (Thermo Fisher Scientific) in growth medium for 30 min in the dark and washed with TAP prior to taking images.
Legend for Fig. S3 – S20. Three independent transformant lines (Strains 1-3) are shown for each combination of modifications (A-L), represented by a cartoon and a shorthand description (cf. Fig.
2). Where a construct was interpreted as generating reporter localization in mitochondria or […]
Epifluorescence microscopy images of typical cells for each strain are shown. MitoTracker fluorescence, false-coloured in cyan, indicates the position of mitochondria (although parts of the cell exterior are sometimes also stained). False-coloured yellow fluorescence from the Venus channel reports on the subcellular localization of the fluorescent reporter. Chlorophyll autofluorescence, shown in magenta, indicates the location of the chloroplast. Scale bars are 5µm. Brightness (Br.) was adjusted for clarity: fluorescence intensity values were restricted to the range shown for each channel by matching coloured rectangles. Intensity scales to 0 at the bottom of the panel, and to 65535 at the top.
On the right-hand side, quantitative information associated with each construct is shown. Data was normalized such that averages range from 0 to 1 across all constructs (cf. Fig S2). Individual cell measurements may exceed this range; for clarity, the range shown here is limited to -0.5 to 1.5, with outliers that have more extreme values shown as lying beyond a dashed line. Strain 1 is plotted as circles, strain 2 as squares, and strain 3 as diamonds. Venus: Fluorescence plate reader data of transformants screened for this construct (Venus fluorescence, accounting for cell density using linear regression of OD750 and chlorophyll fluorescence trained on ‘no venus’ control transformants). Transformants that were not selected after screening are shown as small grey circles. A colour code ranging from white (low Venus fluorescence) to black (high Venus fluorescence) is used for strains 1-3 and the average thereof. Automated image quantification data: pyr/chl: Venus channel signal in the pyrenoid relative to in the chlorophyll region; mt/cell: Venus channel signal in mitochondria relative to the whole cell. Each point corresponds to a single cell.
The colour code code is the same as that below distributions in Fig. S2, i.e. blue highlights the […]

Row | Sequence | mitochondrial targeting upon sole addition of cTP-N (^cP) | chloroplast targeting upon sole addition of cTP-N (^cP)
1 | GWIRDFGKRIERVGQHTRDATIQTIAVAQQAANVAATLKG [S1D, sarcotoxin-1D, HA-RAMP antimicrobial peptide, reference compound] | enabled mitochondrial targeting | 
2 | GKIPVKAIKKAGAAIGKGLRAINIASTAHDVYSFFKPKHKKK [SIM, SI moricin, HA-RAMP antimicrobial peptide, reference compound] |  | at least partial chloroplast targeting; also recorded: generated chloroplast targeting

same assay, conditions: C-terminal element of RCA1-cTP added to the named peptide; Figure 2 rows E and F; bare name = K and R versions

Row | Sequence | chloroplast targeting upon addition of cTP-C (P^c)
3 | GWIRDFGKRIERVGQHTRDATIQTIAVAQQAANVAATLKG [S1D, sarcotoxin-1D, HA-RAMP antimicrobial peptide, reference compound] | enabled chloroplast targeting

same assay, conditions: Figure 2; bare name = K and R versions

Row | Sequence | targeting when combining cTP-N with mTP-C (^cP^m)
4 | GWIRDFGKRIERVGQHTRDATIQTIAVAQQAANVAATLKG [S1D, sarcotoxin-1D, HA-RAMP antimicrobial peptide, reference compound] | dual targeting
5 | GKIPVKAIKKAGAAIGKGLRAINIASTAHDVYSFFKPKHKKK [SIM, SI moricin, HA-RAMP antimicrobial peptide, reference compound] | chloroplast targeting

same assay, conditions: manual targeting assignment of the Venus reporter construct in Chlamydomonas: Neither / Mitochondria / Chloroplast / Dual, (partial) = partial targeting

Row | Sequence | Localisation
6 | MQVTMKSSAVSGQRVMGWIRDFGRRIERVGQHTRDATIQTIAVAQQAANVAATLRGLTQTAESFRGVSSQFFDAPNGPSVKQVLIEDEW [c.S1D.R.m] | Dual
7 | MQVTMKSSAVSGQRVDEVNNDNCRIRFRGDISSESDRMNINYLTQTAESFRGVSSQFFDAPNGPSVKQVLIEDEW [c.RP2.R.m] | Neither
8 | MGGARVATR [CH.R] | Neither
9 | MGGARVATRSVRRAQLQVVASSRKQMGRWRSIDAGVDASDDQ [CH.R.c] | Chloroplast
10 | MQVTMKSSAVSGQRVMLKKVGQSLVPFAKAGLTQTAESFKGVSSQFFDAPNGPSVKQVLIEDEW [c.MH.K.m] | Neither
11 | MQVTMKSSAVSGQRVGGARVATRSVRRAQLQVVASSRKQMGRWRSIDAGVDASDDQ [c.CH.R.c] | Chloroplast
12 | MGRIPVRAIRRAGAAIGRGLRAINIASTAHDVYSFFRPRHRRR [SIM.R] | Neither
13 | MQVTMKSSAVSGQRVDEVNNDNCRIRFRGDISSESDRMNINYSVRRAQLQVVASSRKQMGRWRSIDAGVDASDDQ [c.RP2.R.c] | Neither
14 | MQVTMKSSAVSGQRVGRIPVRAIRRAGAAIGRGLRAINIASTAHDVYSFFRPRHRRRSVRRAQLQVVASSRKQMGRWRSIDAGVDASDDQ [c.SIM.R.c] | Chloroplast
15 | MQVTMKSSAVSGQRVRYYGNGVSCNRRGCSVDWGRAIGIIGNNAAANLTTGGRAGWRGLTQTAESFRGVSSQFFDAPNGPSVKQVLIEDEW [c.EHF.R.m] | Chloroplast
16 | MALWRTMLRRLGTMALHAGRAAFGAAADTISQLTQTAESFRGVSSQFFDAPNGPSVKQVLIEDEW [DDM.R.m] | Neither
17 | MQVTMKSSAVSGQRVRYYGNGVSCNRRGCSVDWGRAIGIIGNNAAANLTTGGRAGWRG [c.EHF.R] | Chloroplast (partial)
18 | MQVTMKSSAVSGQKVGGAKVATK [c.CH.K] | Neither
19 | MRYYGNGVSCNRRGCSVDWGRAIGIIGNNAAANLTTGGRAGWRGLTQTAESFRGVSSQFFDAPNGPSVKQVLIEDEW [EHF.R.m] | Chloroplast
20 | MGGARVATRLTQTAESFRGVSSQFFDAPNGPSVKQVLIEDEW [CH.R.m] | Neither
21 | MQVTMKSSAVSGQRVDEVNNDNCRIRFRGDISSESDRMNINY [c.RP2.R] | Neither

same assay, conditions: peptide-Venus reporter construct expressed in Chlamydomonas reinhardtii; manual targeting assignment (Neither / Mitochondria / Chloroplast / Dual; partial = partial targeting)

Row | Sequence | Localisation
22 | MQVTMKSSAVSGQRVALWMTLLKKVLKAAAKAALNAVLVGANALTQTAESFRGVSSQFFDAPNGPSVKQVLIEDEW [c.DS4.K.m] | Neither
23 | MVNYGNGVSCSRTRCSVNWGIITHQAFRVTSGVASGSVRRAQLQVVASSRKQMGRWRSIDAGVDASDDQ [B15.R.c] | Chloroplast
24 | MQVTMKSSAVSGQRVMGLFSKFNKKKIKSGLIKIIKTAGKEAGLEALRTGIDVIGCKIKGECSVRRAQLQVVASSRKQMGRWRSIDAGVDASDDQ [c.E1S.K.c] | Chloroplast
25 | MQVTMKSSAVSGQRVMKYYGNGVHCTRSGCSVNWGEAFSAGVHRLANGGNGFWSVRRAQLQVVASSRKQMGRWRSIDAGVDASDDQ [c.LCA.R.c] | Chloroplast
26 | MALWMTLLKKVLKAAAKAALNAVLVGANASVRRAQLQVVASSRKQMGRWRSIDAGVDASDDQ [DS4.K.c] | Neither
27 | MFLPLLAGLAANFLPRIFCRITRRCSVRRAQLQVVASSRKQMGRWRSIDAGVDASDDQ [B1E.R.c] | Neither
28 | MQVTMKSSAVSGQRVFLPLLAGLAANFLPKIFCKITRKCSVRRAQLQVVASSRKQMGRWRSIDAGVDASDDQ [c.B1E.K.c] | Chloroplast
29 | MGIGRFLHSARRFGRAFVGEIMNS [MII.R] | Mitochondria
30 | MGLFSRFNRRRIRSGLIRIIRTAGREAGLEALRTGIDVIGCRIRGECLTQTAESFRGVSSQFFDAPNGPSVKQVLIEDEW [E1S.R.m] | Mitochondria (partial)
31 | MFLPLLAGLAANFLPKIFCKITRKC [B1E.K] | Neither
32 | MFLPLLAGLAANFLPRIFCRITRRC [B1E.R] | Neither
33 | MQVTMKSSAVSGQRVMVNYGNGVSCSKTKCSVNWGIITHQAFRVTSGVASG [c.B15.K] | Neither
34 | MWLSKTAKKLENSAKKRISEGIAIAIKGGSR [CP3.K] | Neither
35 | MQVTMKSSAVSGQRVMKYYGNGVHCTKSGCSVNWGEAFSAGVHRLANGGNGFWSVRRAQLQVVASSRKQMGRWRSIDAGVDASDDQ [c.LCA.K.c] | Chloroplast (partial)
36 | MGIGKFLHSAKKFGKAFVGEIMNSSVRRAQLQVVASSRKQMGRWRSIDAGVDASDDQ [MII.K.c] | Mitochondria
37 | MVNYGNGVSCSKTKCSVNWGIITHQAFRVTSGVASGLTQTAESFRGVSSQFFDAPNGPSVKQVLIEDEW [B15.K.m] | Neither

same assay, conditions: targeting of the Venus reporter fused to the peptide, expressed in Chlamydomonas reinhardtii; manual assignment from epifluorescence microscopy; full or partial

Row | Sequence | Localisation
38 | MNIVVYWNFTLWHMDINARNAGCDGEGS [RP1.K] | Neither
39 | MQVTMKSSAVSGQRVGIGRFLHSARRFGRAFVGEIMNSSVRRAQLQVVASSRKQMGRWRSIDAGVDASDDQ [c.MII.R.c] | Chloroplast
40 | MQVTMKSSAVSGQRVMWLSKTAKKLENSAKKRISEGIAIAIKGGSRLTQTAESFRGVSSQFFDAPNGPSVKQVLIEDEW [c.CP3.K.m] | Chloroplast
41 | MQVTMKSSAVSGQRVMGKIPVKAIKKAGAAIGKGLRAINIASTAHDVYSFFKPKHKKKLTQTAESFRGVSSQFFDAPNGPSVKQVLIEDEW [c.SIM.K.m] | Chloroplast
42 | MQVTMKSSAVSGQRVAAAAAAAASVRRAQLQVVASSRKQMGRWRSIDAGVDASDDQ [c.AA.c] | Chloroplast (partial)
43 | MQVTMKSSAVSGQRVMKYYGNGVSCNKKGCSVDWGKAIGIIGNNAAANLTTGGKAGWKG [c.EHF.K] | Neither
44 | MQVTMKSSAVSGQRVMSFLTTFKDLAIKAAKSAGQSVLSTLSCKLSNTC [c.B2I.K] | Mitochondria (partial)
45 | MQVTMKSSAVSGQRVMSFLTTFKDLAIKAAKSAGQSVLSTLSCKLSNTCSVRRAQLQVVASSRKQMGRWRSIDAGVDASDDQ [c.B2I.K.c] | Chloroplast (partial)
46 | MQVTMKSSAVSGQRVDEVNNDNCRIKFKGDISSESDKMNINYLTQTAESFRGVSSQFFDAPNGPSVKQVLIEDEW [c.RP2.K.m] | Neither
47 | MQVTMKSSAVSGQRVMGLFSKFNKKKIKSGLIKIIKTAGKEAGLEALRTGIDVIGCKIKGECLTQTAESFRGVSSQFFDAPNGPSVKQVLIEDEW [c.E1S.K.m] | Chloroplast
48 | MQVTMKSSAVSGQRVNIVVYWNFTLWHMDINARNAGCDGEGSSVRRAQLQVVASSRKQMGRWRSIDAGVDASDDQ [c.RP1.K.c] | Neither
49 | MSFLTTFKDLAIKAAKSAGQSVLSTLSCKLSNTC [B2I.K] | Mitochondria
50 | MQVTMKSSAVSGQRVMWLSRTARRLENSARRRISEGIAIAIRGGSR [c.CP3.R] | Chloroplast (partial)
51 | MGLLLDTLKGAAKDIAGIALEKLKCKITGCKPLTQTAESFRGVSSQFFDAPNGPSVKQVLIEDEW [R2G.K.m] | Mitochondria (partial)
52 | MGWIRDFGKRIERVGQHTRDATIQTIAVAQQAANVAATLKG [S1D.K] | Neither
53 | MQVTMKSSAVSGQRVMGWIRDFGKRIERVGQHTRDATIQTIAVAQQAANVAATLKG [c.S1D.K] | Mitochondria

Reference: paper PMC10363480 (Plant Communications, 2023)
